Results taken from ChEMBL document CHEMBL5528073, “Design, Synthesis, and Biological Evaluation of Pierardine Derivatives as Novel Brain-Penetrant and In Vivo Potent NMDAR-GluN2B Antagonists for Ischemic Stroke Treatment” (J Med Chem, 2024).

System: not listed separately
Experiment: Neuroprotective activity against NMDA-induced cell injury in rat Hippocampal neuron cells assessed as cell viability at 10 uM preincubated with compound for 6 hrs followed by NMDA-addition and measured after 0.5 hrs by MTT assay relative to control
Conditions: Hippocampal neurone, 6.5 h, read-out: Activity; call rule not given here

| Compound | viability at 10 µM [%] |
| --- | --- |
| CC(C(O)c1ccc(O)cc1)N1CCC(Cc2ccccc2)CC1 (stereo unspecified) [IFENPRODIL] | 84.8 |

System: not listed separately
Experiment: Cytotoxicity against HEK293 cells assessed as reduction in cell viability incubated for 48 hrs by CCK-8 assay
Conditions: human

| Compound | IC50 at 48 h [nM] |
| --- | --- |
| CN(C)CCCC1OC(=O)c2ccccc21 (stereo unspecified) | > 300000 |

System: not listed separately
Experiment: Neuroprotective activity against NMDA-induced cell injury in rat Hippocampal neuron cells assessed as cell viability at 0.1 uM preincubated with compound for 6 hrs followed by NMDA-addition and measured after 0.5 hrs by MTT assay relative to control
Conditions: Hippocampal neurone, 6.5 h, read-out: Activity

| Compound | viability at 0.1 µM [%] |
| --- | --- |
| CC(C(O)c1ccc(O)cc1)N1CCC(Cc2ccccc2)CC1 (stereo unspecified) [IFENPRODIL] | 65.9 |

System: not listed separately
Experiment: Cytotoxicity against African green monkey Vero cells assessed as reduction in cell viability incubated for 48 hrs by CCK-8 assay
Conditions: not given

| Compound | IC50 at 48 h [nM] |
| --- | --- |
| CN(C)CCCC1OC(=O)c2ccccc21 (stereo unspecified) | > 300000 |

Biological target: Voltage-gated inwardly rectifying potassium channel KCNH2 (Homo sapiens, UniProt Q12809)
Experiment: Inhibition of hERG expressed in HEK293 cells by whole-cell manual patch-clamp assay
Type: toxicity, cell-based
Conditions: not given

| Compound | inhibition (INH) |
| --- | --- |
| O=C1OC(CCCN2CCN(C(=O)c3cc4cccc(Cl)c4[nH]3)CC2)c2cc(O)ccc21 (stereo unspecified) | Active |

System: not listed separately
Experiment: cells
Conditions: Rattus norvegicus, Hippocampal neurone, 6.5 h, read-out: Activity

| Compound | viability at 1 µM [%] |
| --- | --- |
| CC(C(O)c1ccc(O)cc1)N1CCC(Cc2ccccc2)CC1 (stereo unspecified) [IFENPRODIL] | 77 |

System: not listed separately
Experiment: Cytotoxicity against mouse primary neuron cells assessed as reduction in cell viability incubated for 48 hrs by CCK-8 assay
Conditions: not given

| Compound | IC50 at 48 h [nM] |
| --- | --- |
| CN(C)CCCC1OC(=O)c2ccccc21 (stereo unspecified) | > 300000 |

Biological target: Glutamate receptor ionotropic, NMDA 2B (Rattus norvegicus) (UniProt Q00960)
Experiment: Antagonist activity at rat GluN2B NMDA receptor at 50 nM incubated for 120 mins by competitive binding assay relative to control
Set-up: scale not given: the % may be the effect or the level left
Conditions: not given

Sequence of Glutamate receptor ionotropic, NMDA 2B (Rattus norvegicus) (Q00960 27-1482 limits assumed): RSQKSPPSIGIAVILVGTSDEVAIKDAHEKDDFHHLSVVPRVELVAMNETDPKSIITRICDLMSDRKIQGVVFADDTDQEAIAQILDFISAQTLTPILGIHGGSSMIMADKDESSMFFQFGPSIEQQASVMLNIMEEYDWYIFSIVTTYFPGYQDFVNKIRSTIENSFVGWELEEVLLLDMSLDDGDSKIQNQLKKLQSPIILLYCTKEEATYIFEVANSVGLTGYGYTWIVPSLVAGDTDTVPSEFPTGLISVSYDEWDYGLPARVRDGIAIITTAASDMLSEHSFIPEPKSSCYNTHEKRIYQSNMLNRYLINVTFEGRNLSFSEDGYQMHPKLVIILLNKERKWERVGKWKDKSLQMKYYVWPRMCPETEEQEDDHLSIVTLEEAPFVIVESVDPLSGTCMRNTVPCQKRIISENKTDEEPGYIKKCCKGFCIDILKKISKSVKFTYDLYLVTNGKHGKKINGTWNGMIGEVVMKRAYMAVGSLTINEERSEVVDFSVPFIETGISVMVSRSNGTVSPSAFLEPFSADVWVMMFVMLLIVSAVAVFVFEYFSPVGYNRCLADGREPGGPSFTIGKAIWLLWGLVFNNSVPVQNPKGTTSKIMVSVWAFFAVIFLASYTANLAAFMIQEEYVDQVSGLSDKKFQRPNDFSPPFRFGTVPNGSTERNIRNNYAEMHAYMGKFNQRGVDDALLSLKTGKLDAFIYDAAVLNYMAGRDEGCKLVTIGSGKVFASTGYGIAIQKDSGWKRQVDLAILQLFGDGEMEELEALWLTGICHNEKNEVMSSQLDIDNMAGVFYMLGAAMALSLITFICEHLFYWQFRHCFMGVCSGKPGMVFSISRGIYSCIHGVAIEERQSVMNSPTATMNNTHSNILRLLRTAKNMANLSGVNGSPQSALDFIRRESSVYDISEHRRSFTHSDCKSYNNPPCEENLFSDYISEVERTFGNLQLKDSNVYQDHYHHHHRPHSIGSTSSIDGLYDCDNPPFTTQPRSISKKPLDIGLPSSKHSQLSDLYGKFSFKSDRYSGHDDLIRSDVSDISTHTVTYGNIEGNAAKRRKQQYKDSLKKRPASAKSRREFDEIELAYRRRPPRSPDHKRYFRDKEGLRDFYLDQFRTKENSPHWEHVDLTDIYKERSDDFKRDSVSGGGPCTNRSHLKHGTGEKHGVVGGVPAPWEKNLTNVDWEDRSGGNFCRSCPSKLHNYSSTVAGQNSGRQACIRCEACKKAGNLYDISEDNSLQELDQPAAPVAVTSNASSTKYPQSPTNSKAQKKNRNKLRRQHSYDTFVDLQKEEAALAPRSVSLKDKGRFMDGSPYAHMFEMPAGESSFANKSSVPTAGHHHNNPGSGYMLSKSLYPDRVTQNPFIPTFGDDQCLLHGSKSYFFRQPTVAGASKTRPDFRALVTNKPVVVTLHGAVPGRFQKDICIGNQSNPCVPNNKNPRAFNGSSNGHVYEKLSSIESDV

| Activity [%] | Compound |
| --- | --- |
| 36.6 | O=C1OC(CCCN2CCN(c3csc4ccccc34)CC2)c2ccccc21 (stereo unspecified) |
| 32.4 | Cc1ccc2c(c1)CN(CCCC1OC(=O)c3ccccc31)CC2 (stereo unspecified) |
| 24.5 | O=C1OC(CCCN2CCc3ccccc32)c2ccccc21 (stereo unspecified) |
| 15.7 | O=C1OC(CCCN2CCN(c3nsc4ccccc34)CC2)c2ccccc21 (stereo unspecified) |
| 22.2 | O=C1OC(CCCN2CCc3ccccc3C2)c2ccccc21 (stereo unspecified) |
| 36.4 | O=C1OC(CCCN2CCc3ccccc3C2c2ccccc2)c2ccccc21 (stereo unspecified) |
| 26.7 | O=C1OC(CCCN2Cc3ccccc3C2)c2ccccc21 (stereo unspecified) |
| 30.9 | O=C1OC(CCCN2CCN(c3ncccn3)CC2)c2ccccc21 (stereo unspecified) |

Same assay, conditions: filed as antagonist

| Activity [%] | Compound |
| --- | --- |
| 47.1 | NC(=O)c1coc2ccc(N3CCN(CCCC4OC(=O)c5ccccc54)CC3)cc12 (stereo unspecified) |
| 47.1 | O=C1OC(CCCN2CCc3ccccc32)c2ccccc21 (stereo unspecified) |
| 75.4 | O=C1OC(CCCN2CCN(c3ccccc3)CC2)c2ccccc21 (stereo unspecified) |
| 42.2 | O=C1OC(CCCN2CCN(c3ccccn3)CC2)c2ccccc21 (stereo unspecified) |

| Compound | Activity [%] |
| --- | --- |
| O=C1OC(CCCN2C[C@H]3C[C@@]3(c3ccc(Cl)c(Cl)c3)C2)c2ccccc21 (stereo partly specified) | 76 |

System: not listed separately
Experiment: Cytotoxicity against mouse L929 cells assessed as reduction in cell viability incubated for 48 hrs by CCK-8 assay
Conditions: not given

| Compound | IC50 at 48 h [nM] |
| --- | --- |
| CN(C)CCCC1OC(=O)c2ccccc21 (stereo unspecified) | > 300000 |

Biological target: Glutamate receptor ionotropic, NMDA 2B (Rattus norvegicus, UniProt Q00960)
Experiment: not given
Conditions: not given

Sequence of Glutamate receptor ionotropic, NMDA 2B (Q00960 whole entry): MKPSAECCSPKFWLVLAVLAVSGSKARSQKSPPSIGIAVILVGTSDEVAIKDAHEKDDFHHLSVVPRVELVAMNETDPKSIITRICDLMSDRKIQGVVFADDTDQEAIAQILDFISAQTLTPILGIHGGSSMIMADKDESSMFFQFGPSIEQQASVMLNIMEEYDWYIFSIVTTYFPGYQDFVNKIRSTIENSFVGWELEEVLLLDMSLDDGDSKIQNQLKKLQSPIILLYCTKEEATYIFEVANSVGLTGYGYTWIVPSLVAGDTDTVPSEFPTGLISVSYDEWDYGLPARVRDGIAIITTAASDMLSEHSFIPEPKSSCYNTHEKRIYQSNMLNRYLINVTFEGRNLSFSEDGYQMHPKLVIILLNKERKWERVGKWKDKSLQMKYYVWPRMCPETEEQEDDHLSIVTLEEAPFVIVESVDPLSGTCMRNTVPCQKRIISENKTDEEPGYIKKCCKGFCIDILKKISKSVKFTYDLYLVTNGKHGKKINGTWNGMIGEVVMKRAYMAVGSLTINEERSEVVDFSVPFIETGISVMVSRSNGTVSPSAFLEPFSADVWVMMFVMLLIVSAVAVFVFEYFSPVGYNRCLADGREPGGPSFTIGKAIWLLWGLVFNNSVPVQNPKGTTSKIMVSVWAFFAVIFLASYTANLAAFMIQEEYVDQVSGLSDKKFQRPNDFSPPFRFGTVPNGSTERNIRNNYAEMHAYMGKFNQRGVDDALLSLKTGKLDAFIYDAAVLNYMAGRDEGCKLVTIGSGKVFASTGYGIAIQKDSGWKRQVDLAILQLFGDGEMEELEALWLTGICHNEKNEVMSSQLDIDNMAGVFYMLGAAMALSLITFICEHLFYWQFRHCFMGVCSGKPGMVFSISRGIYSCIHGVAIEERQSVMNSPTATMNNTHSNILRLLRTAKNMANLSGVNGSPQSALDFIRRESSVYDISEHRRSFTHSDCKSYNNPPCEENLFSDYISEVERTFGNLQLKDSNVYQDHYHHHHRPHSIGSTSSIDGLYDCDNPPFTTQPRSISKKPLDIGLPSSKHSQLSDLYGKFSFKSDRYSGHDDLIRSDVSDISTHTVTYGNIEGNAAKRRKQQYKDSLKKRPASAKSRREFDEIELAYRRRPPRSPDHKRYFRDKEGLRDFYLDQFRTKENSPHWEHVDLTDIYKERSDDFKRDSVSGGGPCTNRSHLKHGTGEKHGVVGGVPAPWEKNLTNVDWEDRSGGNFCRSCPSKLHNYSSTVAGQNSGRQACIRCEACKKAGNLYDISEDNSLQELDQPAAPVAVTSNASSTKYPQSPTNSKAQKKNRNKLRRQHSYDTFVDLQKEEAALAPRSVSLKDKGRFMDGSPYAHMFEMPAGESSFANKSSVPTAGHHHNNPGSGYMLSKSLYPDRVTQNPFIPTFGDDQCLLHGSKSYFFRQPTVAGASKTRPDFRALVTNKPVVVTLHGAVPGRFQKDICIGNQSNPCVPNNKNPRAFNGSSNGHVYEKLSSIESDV

| Ki [nM] | Compound |
| --- | --- |
| 6.26 | O=C1OC(CCCN2CCN(c3ccc(O)cc3)CC2)c2ccc(O)cc21 (stereo unspecified) |
| 53.2 | COc1ccc2cc(C(=O)N3CCN(CCCC4OC(=O)c5ccccc54)CC3)[nH]c2c1 (stereo unspecified) |
| 2.6 | O=C1OC(CCCN2CCN(C(=O)c3ccc(C(F)(F)F)cc3)CC2)c2ccccc21 (stereo unspecified) |
| 8.22 | O=C1OC(CCCN2CCN(C(=O)c3ccc(C(F)(F)F)cc3)CC2)c2cc(O)ccc21 (stereo unspecified) |
| 32.8 | O=C1OC(CCCN2CCN(C(=O)c3cc4cnccc4[nH]3)CC2)c2ccccc21 (stereo unspecified) |
| 9.39 | O=C1OC(CCCN2CCN(c3ccc(F)cc3)CC2)c2ccccc21 (stereo unspecified) |
| 3.77 | O=C1OC(CCCN2CCN(c3ccc([N+](=O)[O-])cc3)CC2)c2ccccc21 (stereo unspecified) |
| 36.8 | Cc1cccc(N2CCN(CCCC3OC(=O)c4ccccc43)CC2)c1 (stereo unspecified) |
| 15.1 | Cc1ccc(N2CCN(CCCC3OC(=O)c4ccc(O)cc43)CC2)cc1 (stereo unspecified) |
| 1.34 | Cc1ccc(C(=O)N2CCN(CCCC3OC(=O)c4ccccc43)CC2)cc1 (stereo unspecified) |
| 30.9 | COc1cccc(N2CCN(CCCC3OC(=O)c4ccccc43)CC2)c1 (stereo unspecified) |
| 20.8 | O=C1OC(CCCN2CCN(c3cccc(Cl)c3)CC2)c2ccccc21 (stereo unspecified) |
| 16.7 | O=C1OC(CCCN2CCN(C(=O)c3cc4ccc(Cl)cc4[nH]3)CC2)c2ccccc21 (stereo unspecified) |
| 11.3 | Cc1ccccc1N1CCN(CCCC2OC(=O)c3ccccc32)CC1 (stereo unspecified) |
| 23.6 | O=C1OC(CCCN2CCN(c3ccccc3F)CC2)c2ccccc21 (stereo unspecified) |
| 13.2 | Cc1ccc(C(=O)N2CCN(CCCC3OC(=O)c4cc(NS(C)(=O)=O)ccc43)CC2)cc1 (stereo unspecified) |
| 23.5 | O=C1OC(CCCN2CCN(C(=O)c3cccnc3)CC2)c2ccccc21 (stereo unspecified) |
| 13.9 | O=C1OC(CCCN2CCN(c3ccccc3)CC2)c2ccccc21 (stereo unspecified) |
| 4.23 | CS(=O)(=O)Nc1ccc2c(c1)C(=O)OC2CCCN1CCN(C(=O)c2cc3cccc(Cl)c3[nH]2)CC1 (stereo unspecified) |
| 34.6 | COc1cccc(C(=O)N2CCN(CCCC3OC(=O)c4ccccc43)CC2)c1 (stereo unspecified) |
| 12.7 | O=C1OC(CCCN2CCN(C(=O)c3ccc(Cl)cc3)CC2)c2ccccc21 (stereo unspecified) |
| 46.7 | COc1ccc(C(=O)N2CCN(CCCC3OC(=O)c4ccccc43)CC2)cc1 (stereo unspecified) |
| 32.8 | O=C1OC(CCCN2CCN(C(=O)c3ccccc3)CC2)c2ccccc21 (stereo unspecified) |
| 12.1 | O=C1OC(CCCN2CCN(C(=O)c3ccncc3)CC2)c2ccccc21 (stereo unspecified) |
| 26.5 | O=C1OC(CCCN2CCN(c3ccc(Br)cc3)CC2)c2ccccc21 (stereo unspecified) |
| 13.4 | O=C1OC(CCCN2CCN(C(=O)c3c[nH]cn3)CC2)c2ccccc21 (stereo unspecified) |

| Ki [nM] | Compound |
| --- | --- |
| 15.2 | CS(=O)(=O)Nc1ccc2c(c1)C(=O)OC2CCCN1CCN(C(=O)c2ccc(C(F)(F)F)cc2)CC1 (stereo unspecified) |
| 49.7 | O=C1OC(CCCN2CCN(C(=O)c3cc4cccnc4[nH]3)CC2)c2ccccc21 (stereo unspecified) |
| 6.12 | Cc1ccc(N2CCN(CCCC3OC(=O)c4ccccc43)CC2)cc1 (stereo unspecified) |
| 1.28 | O=C(O)c1ccccc1C(O)CCCN1CCN(C(=O)C2Cc3cccc(Cl)c3N2)CC1 (stereo unspecified) |
| 45.1 | O=C1OC(CCCN2CCN(C(=O)c3ccccn3)CC2)c2ccccc21 (stereo unspecified) |
| 32.1 | O=C1OC(CCCN2CCN(C(=O)c3ccc(C(F)(F)F)cc3)CC2)c2ccc(O)cc21 (stereo unspecified) |
| 27.9 | Cc1cccc2cc(C(=O)N3CCN(CCCC4OC(=O)c5ccccc54)CC3)[nH]c12 (stereo unspecified) |
| 26 | COc1ccc2[nH]c(C(=O)N3CCN(CCCC4OC(=O)c5ccccc54)CC3)cc2c1 (stereo unspecified) |
| 1.12 | O=C1OC(CCCN2CCN(C(=O)c3cc4cccc(Cl)c4[nH]3)CC2)c2cc(O)ccc21 (stereo unspecified) |
| 25.4 | O=C1OC(CCCN2CCN(C(=O)c3cc4ccncc4[nH]3)CC2)c2ccccc21 (stereo unspecified) |
| 13 | O=C1OC(CCCN2CCN(C(=O)c3cc[nH]c3)CC2)c2ccccc21 (stereo unspecified) |
| 25.9 | O=C1OC(CCCN2CCN(c3ccccc3C(F)(F)F)CC2)c2ccccc21 (stereo unspecified) |
| 42.9 | O=C1OC(CCCN2CCN(c3ccc(C(F)(F)F)cc3)CC2)c2ccccc21 (stereo unspecified) |
| 31.1 | O=C1OC(CCCN2CCN(C(=O)c3ccc(F)cc3)CC2)c2ccccc21 (stereo unspecified) |
| 12.4 | Cc1ccc(N2CCN(CCCC3OC(=O)c4cc(NS(C)(=O)=O)ccc43)CC2)cc1 (stereo unspecified) |
| 25.6 | O=C1OC(CCCN2CCN(c3ccc(Cl)cc3)CC2)c2ccccc21 (stereo unspecified) |
| 2.89 | CC(C)c1ccc(N2CCN(CCCC3OC(=O)c4ccccc43)CC2)cc1 (stereo unspecified) |
| 29.2 | Cc1ccc(N2CCN(CCCC3OC(=O)c4ccccc43)CC2)cc1C (stereo unspecified) |
| 26.8 | O=C1OC(CCCN2CCN(c3ccc(O)cc3)CC2)c2ccccc21 (stereo unspecified) |
| 7.97 | O=C1OC(CCCN2CCN(C(=O)c3cc4ccccc4[nH]3)CC2)c2ccccc21 (stereo unspecified) |
| 114 | CN(C)CCCC1OC(=O)c2ccccc21 (stereo unspecified) |
| 24.3 | COc1ccc(N2CCN(CCCC3OC(=O)c4ccccc43)CC2)cc1 (stereo unspecified) |
| 36.2 | Cc1ccc(C(=O)N2CCN(CCCC3OC(=O)c4cc(O)ccc43)CC2)cc1 (stereo unspecified) |
| 73.4 | O=C1OC(CCCN2CCN(C(=O)c3nc4ccccc4[nH]3)CC2)c2ccccc21 (stereo unspecified) |
| 8.15 | COc1ccccc1N1CCN(CCCC2OC(=O)c3ccccc32)CC1 (stereo unspecified) |
| 19.6 | CS(=O)(=O)Nc1ccc2c(c1)C(=O)OC2CCCN1CCN(c2ccc(O)cc2)CC1 (stereo unspecified) |

| Compound | Ki [nM] |
| --- | --- |
| O=C1OC(CCCN2C[C@H]3C[C@@]3(c3ccc(Cl)c(Cl)c3)C2)c2ccccc21 (stereo partly specified) | 33.6 |

Biological target: Glutamate NMDA receptor; GRIN1/GRIN2B (Homo sapiens, UniProt Q05586+Q13224)
Experiment: not given
Conditions: not given

Sequence of Glutamate NMDA receptor; GRIN1/GRIN2B (Q13224 whole entry, other chains not shown): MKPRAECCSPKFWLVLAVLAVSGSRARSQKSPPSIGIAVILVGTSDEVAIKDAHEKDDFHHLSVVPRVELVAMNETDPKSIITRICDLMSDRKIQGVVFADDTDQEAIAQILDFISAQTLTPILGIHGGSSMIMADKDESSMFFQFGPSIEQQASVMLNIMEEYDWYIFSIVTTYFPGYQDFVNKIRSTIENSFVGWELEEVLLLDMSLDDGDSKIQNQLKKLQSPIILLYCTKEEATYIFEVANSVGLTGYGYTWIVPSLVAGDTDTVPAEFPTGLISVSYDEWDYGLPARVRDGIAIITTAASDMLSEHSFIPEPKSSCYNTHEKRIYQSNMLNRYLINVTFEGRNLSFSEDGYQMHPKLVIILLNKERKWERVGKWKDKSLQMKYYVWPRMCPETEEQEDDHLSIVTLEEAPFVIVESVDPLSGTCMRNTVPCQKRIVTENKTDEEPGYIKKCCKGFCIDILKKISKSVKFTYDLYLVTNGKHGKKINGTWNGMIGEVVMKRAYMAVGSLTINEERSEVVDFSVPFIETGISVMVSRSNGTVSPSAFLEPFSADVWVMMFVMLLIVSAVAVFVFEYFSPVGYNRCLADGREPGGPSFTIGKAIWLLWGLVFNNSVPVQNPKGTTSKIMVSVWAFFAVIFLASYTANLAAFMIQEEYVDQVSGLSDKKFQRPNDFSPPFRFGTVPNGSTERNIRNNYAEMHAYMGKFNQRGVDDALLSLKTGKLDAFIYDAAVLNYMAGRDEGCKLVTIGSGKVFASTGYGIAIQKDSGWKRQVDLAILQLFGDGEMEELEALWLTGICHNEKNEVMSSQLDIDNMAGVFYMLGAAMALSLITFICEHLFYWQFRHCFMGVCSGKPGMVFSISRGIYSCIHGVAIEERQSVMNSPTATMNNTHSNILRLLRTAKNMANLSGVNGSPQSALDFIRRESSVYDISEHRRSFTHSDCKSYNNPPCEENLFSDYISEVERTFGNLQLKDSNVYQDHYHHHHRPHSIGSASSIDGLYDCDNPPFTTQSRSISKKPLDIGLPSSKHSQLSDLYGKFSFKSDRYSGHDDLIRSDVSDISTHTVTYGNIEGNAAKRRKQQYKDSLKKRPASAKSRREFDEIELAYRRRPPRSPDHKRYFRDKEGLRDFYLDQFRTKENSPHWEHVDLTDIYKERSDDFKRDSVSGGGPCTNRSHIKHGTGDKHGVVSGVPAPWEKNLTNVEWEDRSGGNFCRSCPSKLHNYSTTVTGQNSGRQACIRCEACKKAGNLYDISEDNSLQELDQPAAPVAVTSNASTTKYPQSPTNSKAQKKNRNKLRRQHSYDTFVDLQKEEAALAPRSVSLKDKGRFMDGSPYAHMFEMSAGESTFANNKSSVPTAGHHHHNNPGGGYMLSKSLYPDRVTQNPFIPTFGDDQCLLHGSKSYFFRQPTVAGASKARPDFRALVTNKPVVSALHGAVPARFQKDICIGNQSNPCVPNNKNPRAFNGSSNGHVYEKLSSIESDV

| IC50 [nM] | Compound |
| --- | --- |
| 183 | O=C1OC(CCCN2CCN(C(=O)c3cc4cccc(Cl)c4[nH]3)CC2)c2cc(O)ccc21 (stereo unspecified) |
| > 10000 | CN(C)CCCC1OC(=O)c2ccccc21 (stereo unspecified) |
